Data on one molecule can be found in PMC7614683, “A small molecule PI3Kα activator for cardioprotection and neuroregeneration” (Nature, 2023).

The structures appear in SMILES notation.

Experiment [1] addresses T1, human p110β/p85α (PI3Kβ) (Homo sapiens, UniProt P42338).
T1 construct: Full-length human p110β/p85α and p110δ/p85α were cloned and expressed in a similar manner; Strep-tag followed by TEV protease site (N, cleaved yes); host or cells: Spodoptera frugiperda Sf9, baculovirus
The experiment can be described thus: ADP-Glo in vitro lipid kinase assay, PI3Kβ. Format: biochemical. The procedure: Full-length human p110β/p85α and p110δ/p85α were cloned and expressed in a similar manner. Briefly, 5 litres of Spodoptera frugiperda (Sf9) cell culture at a density of 1.0 x 10^6 cells/ml were co-infected with both a p85α-encoding virus and a virus encoding p110β/δ with an N-terminal Strep-tag followed by a tobacco etch virus (TEV) protease site (plasmid OP832 for p110β, plasmid OP833 for p110δ and plasmid of OP809 for p85α). After a 48 h infection at 27°C, cells were harvested and washed with PBS. Cell pellets were then resuspended in Lysis Buffer (20 mM Tris pH 8.0, 150 mM NaCl, 5% glycerol, 2 mM β-mercaptoethanol, 1 EDTA-free protease inhibitor tablet (Roche) per 50 ml of buffer) and sonicated ar 4°C for 7 min in 15 sec intervals followed by a 15 sec wait. […]
For re-screening of HTS hits and routine compound profiling, the reaction mixture contained 2 μl PI3K enzyme, 2 μl compound and/or pY and 2 μl of liposome substrate mixed with ATP. […] Luminescence was read using a Sense (Hidex) plate reader. […]
For characterisation of the effects of 1938 on in vitro PI3K enzymology, all reactions were performed at room temperature with 384 white-polystyrene plates (Corning #3574). […] Data was expressed as velocity (nmol of ADP generated/nmol of enzyme/sec). […] Luminescence was read using a PHERAstar® plate reader with software version 5.41, and analyses were performed using GraphPad Prism 8/9.
(ADP-Glo turns the ADP formed in a reaction into a luminescent signal.)

In experiment [2] the test system is PI3Kα-WT MEFs. As to the kind of experiment: pAKT S473 western blot, PI3Kα-WT MEFs. Format: cell-based. The following applies: Mus musculus, 0.25 h; 15 min; read-out: EC50 of pAKT^S473 induction. The procedure: Unless otherwise indicated, western blotting was performed with ECL detection. For time course studies, A549 cells were seeded at 250,000 cells per well in 6-well plates in RPMI (10% FBS + 1 mM Na-Pyruvate + 1% P/S) and allowed to adhere overnight. The next day they were serum-starved for 4 h prior to treatment with 100 nM insulin or 5 μM 1938, for the indicated time (5 min to 48 h) at 37°C, 5% CO2. For 1938 titration assays in MEFs, cells were seeded at 150,000 cells per well in 6-well plates and allowed to adhere overnight. The next day they were serum-starved for 4 h prior to treatment with insulin (1 μM), 1938 (0.2 to 30 μM, final DMSO concentration of 1.5%) or inhibitors (final DMSO concentration of ≤1.5%) for 15 min at 37°C, 5% CO2. Cells were washed twice with cold PBS and lysed using cold RIPA buffer (25 mM Tris.HCl pH 7.6, 150 mM NaCl, 1% NP-40, 1% sodium deoxycholate, 0.1% SDS supplemented with protease/phosphatase inhibitor cocktail from Merck). To remove cell debris, homogenates were spun at 13,000 rpm for 15 min at 4°C and the supernatant fraction recovered. Protein concentration was determined by colorimetric assay (BCA assay, Promega). […]
For orientation: In western blotting, separated proteins are transferred to a membrane and probed.

As a reminder, the EC50 is the concentration giving half of the maximal effect.

T1 sequence (P42338 whole entry): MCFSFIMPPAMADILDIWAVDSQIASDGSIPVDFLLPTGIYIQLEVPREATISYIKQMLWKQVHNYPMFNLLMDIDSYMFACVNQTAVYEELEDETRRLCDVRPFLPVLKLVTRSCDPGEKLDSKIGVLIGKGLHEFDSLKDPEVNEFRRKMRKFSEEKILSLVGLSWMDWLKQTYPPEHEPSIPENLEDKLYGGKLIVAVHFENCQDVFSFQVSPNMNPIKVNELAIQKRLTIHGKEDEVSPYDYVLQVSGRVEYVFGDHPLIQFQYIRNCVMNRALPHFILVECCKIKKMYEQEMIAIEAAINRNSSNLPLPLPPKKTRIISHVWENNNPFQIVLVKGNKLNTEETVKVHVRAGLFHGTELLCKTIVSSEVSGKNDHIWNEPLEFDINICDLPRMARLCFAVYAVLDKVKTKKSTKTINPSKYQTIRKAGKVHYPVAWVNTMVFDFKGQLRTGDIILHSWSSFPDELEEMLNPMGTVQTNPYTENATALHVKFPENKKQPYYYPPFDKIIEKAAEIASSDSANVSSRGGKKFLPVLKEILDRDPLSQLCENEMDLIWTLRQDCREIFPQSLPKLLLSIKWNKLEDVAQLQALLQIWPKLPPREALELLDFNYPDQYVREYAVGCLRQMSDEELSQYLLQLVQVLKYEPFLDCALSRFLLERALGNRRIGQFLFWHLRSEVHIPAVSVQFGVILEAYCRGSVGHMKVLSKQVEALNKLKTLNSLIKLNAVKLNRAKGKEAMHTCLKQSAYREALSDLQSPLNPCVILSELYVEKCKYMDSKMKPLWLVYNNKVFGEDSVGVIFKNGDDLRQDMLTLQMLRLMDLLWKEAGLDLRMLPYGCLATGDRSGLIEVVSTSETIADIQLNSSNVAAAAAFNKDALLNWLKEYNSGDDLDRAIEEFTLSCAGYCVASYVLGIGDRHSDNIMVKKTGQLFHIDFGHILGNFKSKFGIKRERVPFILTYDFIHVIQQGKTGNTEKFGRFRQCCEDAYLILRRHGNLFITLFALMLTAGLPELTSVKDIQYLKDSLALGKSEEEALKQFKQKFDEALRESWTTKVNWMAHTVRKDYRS
T1 sequence (P27986 whole entry partner): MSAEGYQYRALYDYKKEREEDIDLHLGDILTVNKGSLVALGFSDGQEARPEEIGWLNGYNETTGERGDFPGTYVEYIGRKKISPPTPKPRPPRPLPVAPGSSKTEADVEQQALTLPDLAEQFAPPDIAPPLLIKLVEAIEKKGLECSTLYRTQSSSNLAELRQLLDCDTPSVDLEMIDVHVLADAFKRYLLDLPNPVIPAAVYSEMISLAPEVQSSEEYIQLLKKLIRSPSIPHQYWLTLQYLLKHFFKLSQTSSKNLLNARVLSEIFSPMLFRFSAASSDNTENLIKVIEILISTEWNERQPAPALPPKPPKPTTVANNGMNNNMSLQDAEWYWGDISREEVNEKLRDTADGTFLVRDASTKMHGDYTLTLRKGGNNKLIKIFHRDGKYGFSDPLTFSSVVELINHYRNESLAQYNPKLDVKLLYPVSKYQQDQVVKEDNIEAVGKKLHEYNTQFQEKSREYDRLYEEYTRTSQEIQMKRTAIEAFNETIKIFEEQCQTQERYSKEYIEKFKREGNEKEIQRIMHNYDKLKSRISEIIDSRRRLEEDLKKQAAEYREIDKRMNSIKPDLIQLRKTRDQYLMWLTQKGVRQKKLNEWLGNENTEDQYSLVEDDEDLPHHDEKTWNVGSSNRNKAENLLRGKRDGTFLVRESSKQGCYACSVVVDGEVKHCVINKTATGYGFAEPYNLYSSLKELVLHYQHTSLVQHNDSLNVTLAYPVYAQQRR

For the molecule `CCN1CCN(c2ccc(Nc3cc(Nc4cccc5c4N(C(C)=O)CC5)ccn3)cc2)CC1` [Compound 1938], the “activation of PI3Kβ” value in experiment [1] is “but not PI3Kβ or PI3Kδ”. The EC50 in experiment [2] lay within 2 to 4 µM.
